Here are results for ten molecules from ChEMBL document CHEMBL1201862, “PubChem BioAssay data set” (2004).

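Cultured in 96-well plates, cells were exposed to test compound for 48 hours across five concentrations. The concentration for 50% growth inhibition is given as GI50.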 Calls of active or inactive are those of the source. Rule as the data show it: active = GI50 up to about 1.1 µM and inactive = higher. *1 amine or outer side, *2 acyl side, *3 side chain or, on linkers, in order; H or OH if unused. Where a SMILES comes first, the peptide text is derived from it. [ ]: non-standard residue; d: D form. The star is where a group is joined. ξ: configuration not given here. X53 = CC(C)C[C@H](N[*:1])C1=N[C@H](C(=O)[*:2])CS1; Ile(3ξ) = CCC(C)[C@H](N)C(=O)O; Allyl(1,1-Me2) = C=CC(C)(C)* Some results are limits rather than exact numbers.

Test systems include MCF7; NCI-H522; UACC-257; NCI-H460; MDA-MB-435; LOX IMVI; HCC 2998; OVCAR-3; SW-620; 786-0; HL-60; RPMI-8226; SK-OV-3; SK-MEL-5; SNB-19; HOP-92; SF-268; T47D; CAKI-1; OVCAR-4.
Assay in all cases: NCI anticancer screen, dose series, 48 h

On to `O=c1cc(NNc2ccccc2)[nH]c(=S)[nH]1`, for which the GI50 in the assay with MCF7 was 25.9 µM (inactive); with NCI-H522, 17.5 µM (inactive); in the assay on UACC-257 it was 47.6 µM (inactive); in the assay with NCI-H460, 76.2 µM (inactive); with MDA-MB-435, 49.5 µM (inactive); with LOX IMVI, 16.8 µM (inactive). Besides, the GI50 in the assay on HCC 2998 is 17.4 µM (inactive); in the assay on OVCAR-3, 16.7 µM (inactive); in the assay on SW-620, 20.5 µM (inactive); with 786-0, 4.9 µM (inactive); in the assay with HL-60, 25.1 µM (inactive); in the assay with RPMI-8226, 10.5 µM (inactive). Further, the GI50 with SK-OV-3 was > 100 µM (inactive); in the assay on SK-MEL-5, 57 µM (inactive); in the assay on SNB-19 it was > 100 µM (inactive); in the assay with HOP-92 it was 32.6 µM (inactive); in the assay with SF-268 it was 32.7 µM (inactive); with T47D it was 27.1 µM (inactive). The results for the GI50 in the assay with CAKI-1 and in the assay on OVCAR-4 were 20.3 µM (inactive) and 71 µM (inactive), respectively.

Regarding `CN1CCN(CC(=O)N2CCCn3c2nc2ccccc2c3=O)CC1`, the GI50 in the assay with MCF7, with NCI-H522, in the assay on UACC-257, with NCI-H460, with MDA-MB-435 and with LOX IMVI was > 100 µM (inactive) throughout. Also, the GI50 with HCC 2998, in the assay with OVCAR-3, in the assay with SW-620, in the assay with 786-0, in the assay on HL-60 and in the assay with RPMI-8226 was > 100 µM (inactive) in each case. Further, the GI50 is > 100 µM (inactive) in the assay on SK-OV-3; > 100 µM (inactive) with SK-MEL-5; > 100 µM (inactive) with SNB-19; 48.2 µM (inactive) in the assay with HOP-92; > 100 µM (inactive) with SF-268; > 100 µM (inactive) in the assay on T47D. The GI50 with CAKI-1 and with OVCAR-4 was > 100 µM (inactive) throughout.

As to `O=C1C=C(Nc2cccnc2)c2ccccc2C1=O`, the GI50 is 2.64 µM (inactive) with MCF7; 4.7 µM (inactive) in the assay with NCI-H522; 1.9 µM (inactive) with UACC-257; 3.41 µM (inactive) in the assay on NCI-H460; 0.348 µM (active) with MDA-MB-435; 2.61 µM (inactive) in the assay on LOX IMVI. The GI50 was 11.2 µM (inactive) with HCC 2998; 2.72 µM (inactive) with OVCAR-3; 4.13 µM (inactive) in the assay on SW-620; 8.95 µM (inactive) in the assay on 786-0; 3.31 µM (inactive) in the assay on HL-60; 9.04 µM (inactive) in the assay with RPMI-8226. The GI50 in the assay with SK-OV-3 was 8.71 µM (inactive); in the assay with SK-MEL-5 it was 1.26 µM (inactive); in the assay on SNB-19, 7.1 µM (inactive); in the assay on HOP-92, 16.1 µM (inactive); with SF-268, 7.91 µM (inactive); in the assay on T47D, 21.4 µM (inactive). In addition, the GI50 in the assay on CAKI-1 is 4.58 µM (inactive); with OVCAR-4, 8.87 µM (inactive).

Turning to `Nc1ccn(C2OC(COP(=O)(O)O)C(O)C2O)c(=O)n1` (stereo not drawn), the GI50 in the assay with MCF7 is 1.31 µM (inactive); in the assay with NCI-H522, 20.2 µM (inactive); in the assay on UACC-257 it was > 63.4 µM (inactive); with NCI-H460 it was 0.32 µM (active); with MDA-MB-435 it was 14.5 µM (inactive); with LOX IMVI, 3.08 µM (inactive). Moreover, the GI50 was > 100 µM (inactive) in the assay on HCC 2998; > 100 µM (inactive) with OVCAR-3; > 56.9 µM (inactive) with SW-620; 5.31 µM (inactive) in the assay on 786-0; 0.205 µM (active) with HL-60; > 100 µM (inactive) with RPMI-8226. For the same molecule, the GI50 in the assay on SK-OV-3 is 42.1 µM (inactive); with SK-MEL-5, 16.6 µM (inactive); with SNB-19, 23.8 µM (inactive); with HOP-92, 17.8 µM (inactive); with SF-268, 10.9 µM (inactive); with T47D, 42 µM (inactive). Besides, the GI50 in the assay with CAKI-1 is 14.4 µM (inactive); with OVCAR-4 it was > 100 µM (inactive).

Regarding `S=C1NCCN1C(=S)NC1CCCCC1`, the GI50 with MCF7 is 43.1 µM (inactive); with NCI-H522, 22.1 µM (inactive); in the assay with UACC-257, 26.2 µM (inactive); in the assay with NCI-H460, 20.3 µM (inactive); with MDA-MB-435, 26.2 µM (inactive); with LOX IMVI, 35.8 µM (inactive). Further, the GI50 with HCC 2998 is 20.9 µM (inactive); in the assay with OVCAR-3, 31.3 µM (inactive); with SW-620, 46 µM (inactive); in the assay with 786-0, 37.9 µM (inactive); in the assay with HL-60 it was 40.7 µM (inactive); with RPMI-8226, 30 µM (inactive). In addition, the GI50 in the assay with SK-OV-3 was 39.4 µM (inactive); in the assay with SK-MEL-5, 22.2 µM (inactive); in the assay on HOP-92 it was 24.8 µM (inactive); in the assay with SF-268, 34.7 µM (inactive); in the assay with T47D it was 27.7 µM (inactive); with CAKI-1, 25.4 µM (inactive). Besides, the GI50 in the assay with OVCAR-4 was 19.3 µM (inactive).

As for `COC(=O)c1c2c(cc3c1CC1(Cc4ccccc4C1=O)C3)CCC2` (stereo not drawn), the GI50 is 43.8 µM (inactive) in the assay on MCF7; 49.8 µM (inactive) in the assay on NCI-H522; 43.3 µM (inactive) with UACC-257; 29.9 µM (inactive) in the assay on NCI-H460; 13.5 µM (inactive) in the assay on MDA-MB-435; 31 µM (inactive) in the assay on LOX IMVI. Further, the GI50 is 36.6 µM (inactive) in the assay on HCC 2998; 19.5 µM (inactive) with OVCAR-3; 31.8 µM (inactive) in the assay with SW-620; 25.2 µM (inactive) in the assay with 786-0; 16 µM (inactive) in the assay on HL-60; 18.6 µM (inactive) with RPMI-8226. In addition, the GI50 in the assay on SK-OV-3 was > 100 µM (inactive); with SK-MEL-5, 15.3 µM (inactive); in the assay with SNB-19 it was > 100 µM (inactive); in the assay with HOP-92 it was 23 µM (inactive); in the assay with SF-268 it was 48.8 µM (inactive); in the assay with T47D it was 52.7 µM (inactive). Moreover, the GI50 was 10.7 µM (inactive) in the assay on CAKI-1 and 36.1 µM (inactive) in the assay with OVCAR-4.

`c1ccc2c(Cc3[nH]c4ccccc4c3Cc3c[nH]c4ccccc34)c[nH]c2c1`: the GI50 with MCF7 is 11.2 µM (inactive); in the assay on NCI-H522 it was 1.8 µM (inactive); with UACC-257, 2.71 µM (inactive); in the assay with NCI-H460 it was 1.91 µM (inactive); with MDA-MB-435, 2.08 µM (inactive); in the assay with LOX IMVI, 2.19 µM (inactive). Besides, the GI50 in the assay on HCC 2998 is 1.64 µM (inactive); with OVCAR-3, 3.16 µM (inactive); with SW-620, 1.74 µM (inactive); with 786-0 it was 1.73 µM (inactive); in the assay on HL-60, 1.86 µM (inactive); in the assay with RPMI-8226, 2.74 µM (inactive). The GI50 with SK-OV-3 is 3.56 µM (inactive); in the assay with SK-MEL-5, 2.17 µM (inactive); with SNB-19, 4.93 µM (inactive); in the assay on HOP-92, 3.9 µM (inactive); in the assay with SF-268, 1.23 µM (inactive); in the assay on T47D, 2.93 µM (inactive). In addition, the GI50 in the assay with CAKI-1 is 2.74 µM (inactive); with OVCAR-4, 3.06 µM (inactive).

`CC(C)N1CCN(c2ccc(OCC3COC(Cn4cncn4)(c4ccc(Cl)cc4Cl)O3)cc2)CC1` (stereo not drawn) [TERCONAZOLE]: the GI50 in the assay on MCF7 is 13.2 µM (inactive); in the assay on NCI-H522, 15.2 µM (inactive); in the assay with UACC-257 it was 1.89 µM (inactive); with NCI-H460, 14.6 µM (inactive); in the assay with MDA-MB-435, 4.97 µM (inactive); in the assay on LOX IMVI it was 12 µM (inactive). For the same molecule, the GI50 in the assay on HCC 2998 is 9.18 µM (inactive); in the assay on OVCAR-3, 13.5 µM (inactive); in the assay with SW-620 it was 15.3 µM (inactive); with 786-0, 4.06 µM (inactive); in the assay with HL-60, 15.4 µM (inactive); in the assay with RPMI-8226, 10.5 µM (inactive). The GI50 is 13.5 µM (inactive) in the assay with SK-OV-3; 2.18 µM (inactive) in the assay on SK-MEL-5; > 42.1 µM (inactive) in the assay on SNB-19; 13.6 µM (inactive) in the assay with HOP-92; 12.3 µM (inactive) in the assay with SF-268; 18 µM (inactive) in the assay on T47D. Further, the GI50 in the assay on CAKI-1 was 17.3 µM (inactive); in the assay with OVCAR-4, 17.2 µM (inactive).

As to `Fc1ccc(C(OCCN2CC3CCC(C2)N3CCCc2ccccc2)c2ccc(F)cc2)cc1`, the GI50 with MCF7 is 3.39 µM (inactive); in the assay on NCI-H522, 2.17 µM (inactive); in the assay on UACC-257 it was 3.33 µM (inactive); with NCI-H460, 3.01 µM (inactive); in the assay with MDA-MB-435, 2.13 µM (inactive); in the assay with LOX IMVI it was 3.89 µM (inactive). For the same molecule, the GI50 with HCC 2998 is 2.87 µM (inactive); with OVCAR-3, 5.92 µM (inactive); in the assay on SW-620, 3.54 µM (inactive); in the assay on 786-0 it was 3.62 µM (inactive); with HL-60, 3.08 µM (inactive); with RPMI-8226, 2.15 µM (inactive). Besides, the GI50 was 10.2 µM (inactive) with SK-OV-3; 1.82 µM (inactive) in the assay on SK-MEL-5; 10.1 µM (inactive) in the assay with SNB-19; 8.05 µM (inactive) in the assay on HOP-92; 4.5 µM (inactive) in the assay with SF-268; 1.95 µM (inactive) with T47D. Also, the results for the GI50 in the assay with CAKI-1 and with OVCAR-4 were 6.22 µM (inactive) and 3.94 µM (inactive), respectively.

As to `C=CC(C)(C)OC[C@@H]1NC(=O)CNC(=O)[C@@H]2CCCN2C(=O)[C@H](C(C)CC)NC(=O)[C@@H]2CSC(=N2)[C@H](CC(C)C)NC1=O` (stereo partly drawn) (cyclo(GS(Allyl(1,1-Me2))[X53][Ile(3ξ)]P)), the GI50 with MCF7 was 40.6 µM (inactive); with NCI-H522, 32.9 µM (inactive); in the assay on UACC-257 it was 38.5 µM (inactive); with NCI-H460, 37.6 µM (inactive); in the assay on MDA-MB-435, 26.4 µM (inactive); in the assay on LOX IMVI, > 100 µM (inactive). The GI50 in the assay with HCC 2998 was 83 µM (inactive); in the assay on OVCAR-3, 47.9 µM (inactive); in the assay with 786-0 it was > 100 µM (inactive); with HL-60 it was 29.2 µM (inactive); in the assay with RPMI-8226 it was 18.6 µM (inactive); in the assay on SK-OV-3 it was > 100 µM (inactive). Further, the GI50 in the assay with SK-MEL-5 is 32.6 µM (inactive); in the assay with SNB-19 it was > 100 µM (inactive); in the assay with HOP-92, 37.3 µM (inactive); in the assay on SF-268, 68.4 µM (inactive); with T47D, 33.6 µM (inactive); in the assay on CAKI-1, 75 µM (inactive). In the assay with OVCAR-4, the GI50 is 22.3 µM (inactive).
